Test results published in EP0335745A1, “Process for producing pyrid-4-ones” (THE ROYAL FREE HOSPITAL SCHOOL OF MEDICINE, priority 1988, dated 1989).
Read-outs that look alike come from different tables or passages of the source.

Assays:
[1] = molecular target: T1, human transferrin (Homo sapiens, UniProt P02787); experiment: Iron mobilisation from 59Fe transferrin by dialysis against chelator solution; type: biochemical; details: chelator 4x10⁻³M, 37°C, pH 7.3, 2 x PBS
T1 construct: purchased Sigma
Experimental: Human apotransferrin (Sigma) was radioactively labelled with ⁵⁹Fe and saturated with iron as previously described. Samples (1.5ml) of the ⁵⁹Fe transferrin (0.54mg protein, 0.75 µg iron, 0.07 µCi ⁵⁹Fe) were enclosed in a dialysis bag and dialysed against a chelator solution (10ml, 4mM) by continuous stirring at 37°C. Samples (1ml) of the dialysate were removed at different time intervals, the ⁵⁹Fe activity measured and then returned back into the incubation mixture. Ferritin solution and haemosiderin solid were isloated from a spleen of a thalassemia patient and samples containing the same amount of iron (0.25mg, 1.5ml) were dialysed at 37°C against a chelator solution (4mM, 10ml) over a 12 day period. The amount of iron immobilised was estimated spectrophotometrically by measuring the visible absorbance of the dialysate and by using the extinction coefficient of the chelator iron complex (Fig 3, Table 6). All the protein incubations with the chelators were carried out in the 2xPBS pH 7.3.
Haemosiderin (0.25mg iron, 16.5% w/w iron, […]) ferritin (0.25mg iron, 10.7% w/w iron, 1.5ml) and transferrin (0.75ug iron, 0.54mg protein, 0.07 uCi ⁵⁹Fe, 1.5ml) in dialysis bags were dialysed against the chelators (4x10⁻³M, 10ml) at 37°C, pH 7.3 in 2 x PBS by continuous stirring. Iron mobilisation was estimated from samples of the dialysates taken at different time intervals as explained in the Materials and Methods section.

[2] = pKa determination of the chelators; type: physicochemical
[3] = n-octanol/water (PBS) partition coefficient (K par) of the chelators and their iron complexes; type: physicochemical; details: for K par Chelator / K par Iron Complex: n-octanol/water (PBS), Table 4; for K par Chelator / Kpar Chelator: free chelator; for K par Iron Complex: iron complex of the chelator; for Kpar Chelator / Kpar iron Complex: n-octanol/phosphate buffer saline (PH 7.3), Table 7
Experimental: The n-octanol/water (PBS) partition coefficients (K par) of the chelators and their iron complexes were determined using a previously determined method.
(§1) The partition coefficients of the chelators and their iron complexes were determined using a mixture of n-octanol and phosphate buffer saline at pH 7.3 as previously described. The effect of the chelators on the incorporation of iron containing traces of ⁵⁹Fe into red blood cells was studied as previously described by incubating the chelator iron complexes with packed red blood cells at 37°C, withdrawing aliquots, centrifuging and measuring the incorporation of ⁵⁹Fe into the red blood cells.

[4] = test system: iron loaded ⁵⁹Fe transferrin labelled mice; experiment: Iron mobilisation (59Fe excretion) from iron loaded 59Fe transferrin labelled mice; type: in vivo; details: dose 10mg; for %⁵⁹Fe excretion X ± SE: mice 31-35g, mean of 3 days before chelator administration = 100%
Source text: Iron mobilisation from iron loaded ⁵⁹Fe transferrin labelled mice by the 1-alkyl-2-ethyl-3-hydroxypyrid-4-ones was studied as previously described.

[5] = test system: haemosiderin; experiment: Iron mobilisation from haemosiderin by dialysis against chelator solution; type: biochemical, human; details: chelator 4x10⁻³M, 37°C, pH 7.3, 2 x PBS, * = duplicate samples
Experimental: • Fig 1: pH titration of the chelator iron complexes. Chelators (2mM in 0.1M NaCl, 25ml) and freshly prepared iron (III) chloride (0.5mM in 0.1M NaCl, 25ml) were mixed and titrated with HCl (10M) and NaOH (5M). The absorbance of the chelator iron mixture at 460nm was measured after each pH change. 1-Methyl- (Δ), 1-ethyl- (□) and 1-propyl- (◇) -2-ethyl-3-hydroxypyrid-4-ones. • Fig 2: • A. Job plots of the 1-alkyl-2-ethyl-3-hydroxypyrid-4-ones with iron at pH 7.3. Chelators (2mM in […] 0-5ml) and iron (2mM in 0.1M NaCl, 0-5ml) were mixed at different molar ratios to a final volume of 5ml. 4 x PBS (5ml), pH 7.3 was then added and the absorbance at 460nm measured. […] Theoretical Job plots for 1:1, 2:1, 3:1 chelator:iron complexes were obtained using the maximum absorbance values from the Job plots in A. 1:1 (◇) 2:1 (□), 3:1 (Δ). • Fig. 3: Iron mobilisation from human ferritin and haemosiderin using 1-alkyl-2-ethyl-3-hydroxypyrid-4-ones. […] The progress of the reaction was followed by measuring the absorbance at 460nm of the dialysate at different time intervals.
Human apotransferrin (Sigma) was radioactively labelled with ⁵⁹Fe and saturated with iron as previously described. […] Samples (1ml) of the dialysate were removed at different time intervals, the ⁵⁹Fe activity measured and then returned back into the incubation mixture. […]

[6] = test system: red blood cells; experiment: Red blood cell permeability: incorporation of 59Fe into red blood cells in the presence of the chelators; type: cell-based; details: iron 2.5 x 10⁻⁵M, chelators 18 x 10⁻⁵M, packed red blood cells, 37°C
Experimental: as §1

[7] = test system: male Sprague Dawley rats; experiment: Lethal dose range in rats, intraperitoneal administration; type: in vivo
Experimental: The three 1-alkyl-3-hydroxy-2-methylpyrid-4-ones dissolved in phosphate buffer saline were administered intraperitoneally to groups of three male Sprague Dawley rats (60-90g) at different doses until a near maximum non-lethal dose was established.

[8] = test system: loaded mice and rabbits; details: doses of up to 200 mg/kg, also non iron loaded mice; cited from earlier work
[9] = pKa of the hydroxyl group, read-out: Pka(2)
[10] = male, Sprague Dawley, rat, in vivo, ip

T1 sequence (P02787 20-698): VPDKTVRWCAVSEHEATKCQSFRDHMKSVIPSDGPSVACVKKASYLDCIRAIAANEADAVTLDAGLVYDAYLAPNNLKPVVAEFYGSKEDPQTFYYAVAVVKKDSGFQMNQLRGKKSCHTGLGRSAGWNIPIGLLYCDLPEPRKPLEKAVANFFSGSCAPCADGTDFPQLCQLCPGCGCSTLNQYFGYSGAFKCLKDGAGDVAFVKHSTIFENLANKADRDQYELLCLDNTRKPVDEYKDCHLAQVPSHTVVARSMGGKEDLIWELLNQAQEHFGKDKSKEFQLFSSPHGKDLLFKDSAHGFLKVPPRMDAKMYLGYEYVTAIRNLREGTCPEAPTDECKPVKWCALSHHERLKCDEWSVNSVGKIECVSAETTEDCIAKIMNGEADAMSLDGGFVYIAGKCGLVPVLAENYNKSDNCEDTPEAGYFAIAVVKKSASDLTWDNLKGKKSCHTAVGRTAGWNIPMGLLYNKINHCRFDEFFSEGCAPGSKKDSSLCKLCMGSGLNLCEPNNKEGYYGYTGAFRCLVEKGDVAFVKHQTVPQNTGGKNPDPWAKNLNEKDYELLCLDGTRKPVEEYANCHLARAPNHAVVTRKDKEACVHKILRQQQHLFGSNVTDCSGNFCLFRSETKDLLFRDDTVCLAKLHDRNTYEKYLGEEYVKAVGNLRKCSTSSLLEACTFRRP

## CCc1c(O)c(=O)ccn1CC [Example 5, 1,2-diethyl-3-hydroxypyrid-4-one]
[1]
  Percentage Iron Removal Transferrin ⁵⁹Fe 1h: 24.9
  Percentage Iron Removal Transferrin ⁵⁹Fe 2h: 51.8
  Percentage Iron Removal Transferrin ⁵⁹Fe 8h: 96.6
[2]; [9]
  pKa: 10.1
[2]; read-out: PKa(1)
  pKa: 3.7
[3]
  K par Chelator: 1.4
  K par Iron Complex: 0.28
[4]; ig
  %⁵⁹Fe excretion X ± SE: 309 ± 22%
[4]; ip
  %⁵⁹Fe excretion X ± SE: 371 ± 46%

## CCCn1ccc(=O)c(O)c1CC [Example 6, 2-ethyl-3-hydroxy-1-propylpyrid-4-one]
[1]
  Percentage Iron Removal Transferrin ⁵⁹Fe 1h: 23.2
  Percentage Iron Removal Transferrin ⁵⁹Fe 2h: 50.3
  Percentage Iron Removal Transferrin ⁵⁹Fe 8h: 97.6
[2]; [9]
  pKa: 10.1
[2]; read-out: PKa(1)
  pKa: 3.4
[5]; 24h
  Percentage Iron Removal Haemosiderin 24h: 27.8
[5]; 12d
  Percentage Iron Removal Haemosiderin 12d: 74.5
[3]
  K par Chelator: 4.2
  K par Iron Complex: 9.68
[4]; ig
  %⁵⁹Fe excretion X ± SE: 163 ± 25%
[4]; ip
  %⁵⁹Fe excretion X ± SE: 334 ± 64%
[4]; mice, ip or ig, 11 administrations
  death of mice before the completion of the treatment: caused death to two mice

## CCc1c(O)c(=O)ccn1C [Example 4, 2-Ethyl-3-hydroxy-1-methylpyrid-4-one]
[1]
  Percentage Iron Removal Transferrin ⁵⁹Fe 1h: 36.0
  Percentage Iron Removal Transferrin ⁵⁹Fe 2h: 56.6
  Percentage Iron Removal Transferrin ⁵⁹Fe 8h: 100.0
[2]; [9]
  pKa: 9.8
[2]; read-out: PKa(1)
  pKa: 3.7
[3]
  K par Chelator: 0.4
  K par Iron Complex: 0.02
[4]; ig
  %⁵⁹Fe excretion X ± SE: 362 ± 53%
[4]; ip
  %⁵⁹Fe excretion X ± SE: 415 ± 42%

## CCCn1ccc(=O)c(O)c1C [Example 3, 3-Hydroxy-2-methyl-1-propylpyrid-4-one]
[2]; [9]
  pKa: 10.2
[2]; read-out: PKa(1)
  pKa: 3.7
[6]
  ⁵⁹Fe incorporation (%) 20 min: 85%
  ⁵⁹Fe incorporation (%) 1h: 86%
[7]; [10]
  Lethal Dose (range): 150 to 200 mg/kg

## CC(=O)N(O)CCCCCNC(=O)CCC(=O)N(O)CCCCCNC(=O)CCC(=O)N(O)CCCCCN [Desferrioxamine, reference compound]
[4]; ip
  %⁵⁹Fe excretion X ± SE: 381 ± 49%

## CCn1ccc(=O)c(O)c1C [Example 2, 1-Ethyl-3-hydroxy-2-methylpyrid-4-one]
[2]; [9]
  pKa: 10.3
[2]; read-out: PKa(1)
  pKa: 3.6
[6]
  ⁵⁹Fe incorporation (%) 20 min: 5.0%
  ⁵⁹Fe incorporation (%) 1h: 10%
[3]
  Kpar Chelator: 0.47
  Kpar iron Complex: 0.52
  K par Chelator: 0.37
  K par Iron Complex: 0.52
[8]
  increasing iron excretion: effective
[7]; rats, intraperitoneally, range of doses, the higher being lethal and the lower a non-lethal dose
  Lethal Dose (range): 400 to 500 mg/kg

## Cc1c(O)c(=O)ccn1C [Example 1, 1,2-Dimethyl-3-hydroxypyrid-4-one]
[1]
  Percentage Iron Removal Transferrin ⁵⁹Fe 1h: 37.3
  Percentage Iron Removal Transferrin ⁵⁹Fe 2h: 69.9
  Percentage Iron Removal Transferrin ⁵⁹Fe 8h: 99.5
[2]; [9]
  pKa: 9.7
[2]; read-out: PKa(1)
  pKa: 3.3
[6]
  ⁵⁹Fe incorporation (%) 20 min: 5.0%
  ⁵⁹Fe incorporation (%) 1h: 5.0%
[3]
  Kpar Chelator: 0.19
  Kpar iron Complex: 0.24
  K par Chelator: 0.19
  K par Iron Complex: 0.24
[8]
  increasing iron excretion: effective
[7]; [10]
  Lethal Dose (range): 600 to 700 mg/kg
